# Article PMC8699473, “An Easily Expandable Multi-Drug LC-MS Assay for the Simultaneous Quantification of 57 Oral Antitumor Drugs in Human Plasma” (Cancers, 2021)
# Test: Short-term stability in spiked pooled human plasma (bench-top, 4 °C, 56 °C)
Compound,"Short-time stability (1h, 56°C) Accuracy [%] (validation standard 2xLLOV)","Short-time stability (24h, 4°C, without daylight) Accuracy [%] (validation standard 2xLLOV)","Short-time stability (24h, RT, with daylight) Accuracy [%] (validation standard 2xLLOV)","Short-time stability (24h, RT, without daylight) Accuracy [%] (validation standard 2xLLOV)","Short-time stability (1h, 56°C) Accuracy [%] (validation standard MOV)","Short-time stability (24h, 4°C, without daylight) Accuracy [%] (validation standard MOV)","Short-time stability (24h, RT, with daylight) Accuracy [%] (validation standard MOV)","Short-time stability (24h, RT, without daylight) Accuracy [%] (validation standard MOV)","Short-time stability (1h, 56°C) Accuracy [%] (validation standard ULOV)","Short-time stability (24h, 4°C, without daylight) Accuracy [%] (validation standard ULOV)","Short-time stability (24h, RT, with daylight) Accuracy [%] (validation standard ULOV)","Short-time stability (24h, RT, without daylight) Accuracy [%] (validation standard ULOV)","Short-time stability (24h, 4°C, without daylight) Accuracy [%] (validation standard LLOV)","Short-time stability (1h, 56°C) Accuracy [%] (validation standard LLOV)","Short-time stability (24h, RT, with daylight) Accuracy [%] (validation standard LLOV)","Short-time stability (24h, RT, without daylight) Accuracy [%] (validation standard LLOV)"
Cc1ccc(C(=O)Nc2ccc(CN3CCN(C)CC3)c(C(F)(F)F)c2)cc1C#Cc1cnc2cccnn12 [Ponatinib],48.3,96.6,98.7,98.1,50.8,100.1,99.8,102.6,43.1,93.3,97.8,98.9,–,–,–,–
O=C1CCC(N2C(=O)c3ccccc3C2=O)C(=O)N1 (stereo not shown) [Thalidomide],–,64.9,–,–,–,60.7,–,–,–,55.2,1.7,1.7,69.3,–,–,–
CCC1=C[C@@H]2CN(C1)Cc1c([nH]c3ccccc13)[C@@](C(=O)OC)(c1cc3c(cc1OC)N(C)[C@H]1[C@@](O)(C(=O)OC)[C@H](OC(C)=O)[C@]4(CC)C=CCN5CC[C@]31[C@@H]54)C2 [Vinorelbine],42.2,88.7,78.0,79.3,37.2,93.6,66.8,70.0,29.6,91.1,62.0,57.4,96.3,67.0,98.2,96.4
CC1(C)CCC(CN2CCN(c3ccc(C(=O)NS(=O)(=O)c4ccc(NCC5CCOCC5)c([N+](=O)[O-])c4)c(Oc4cnc5[nH]ccc5c4)c3)CC2)=C(c2ccc(Cl)cc2)C1 [Venetoclax],34.5,102.9,98.6,95.7,26.4,100.5,96.8,98.0,22.4,99.7,94.1,92.7,88.8,–,112.5,102.7
NC(=O)c1cccc2cn(-c3ccc([C@@H]4CCCNC4)cc3)nc12 [Niraparib],53.4,96.9,95.2,93.8,51.1,100.2,97.6,96.5,43.8,92.7,95.8,94.0,93.8,46.8,92.3,91.9
COc1cc2c(Nc3ccc(Br)cc3F)ncnc2cc1OCC1CCN(C)CC1 [Vandetanib],44.7,99.4,97.2,94.8,49.3,101.6,95.8,95.1,41.3,88.8,83.1,83.3,91.7,24.9,81.4,80.3
CNCc1ccc(-c2[nH]c3cc(F)cc4c3c2CCNC4=O)cc1 [Rucaparib],56.7,94.0,94.3,95.8,52.2,102.0,100.5,102.1,46.1,96.9,98.9,99.1,106.8,60.9,100.0,99.7
Cc1cn(-c2cc(NC(=O)c3ccc(C)c(Nc4nccc(-c5cccnc5)n4)c3)cc(C(F)(F)F)c2)cn1 [Nilotinib],47.8,101.2,107.8,108.6,52.5,100.3,110.2,114.5,44.6,97.1,108.0,110.3,96.7,28.5,94.9,96.7
O=C(c1cc(Cc2n[nH]c(=O)c3ccccc23)ccc1F)N1CCN(C(=O)C2CC2)CC1 [Olaparib],64.1,101.8,91.3,90.8,49.4,98.6,89.4,88.9,42.9,99.7,99.0,94.2,110.7,80.6,108.3,110.6
Cc1c(C(=O)Nc2ccc(N3C[C@@H](C)O[C@@H](C)C3)nc2)cccc1-c1ccc(OC(F)(F)F)cc1 [Sonidegib],47.0,99.1,95.7,91.1,44.9,98.4,92.2,94.7,40.1,96.7,92.9,91.4,96.4,38.1,96.2,86.1
